Source: PMC8949893, “Chemical Synthesis, Pharmacokinetic Properties and Biological Effects of JM-00266, a Putative Non-Brain Penetrant Cannabinoid Receptor 1 Inverse Agonist” (International Journal of Molecular Sciences, 2022)

Tests used:
mice [1] = test: Gastro-intestinal transit (charcoal marker); type: in vivo
Description: Short-term effects of JM-00266 on gastro-intestinal transit were tested as an indicator of peripheral CB1R activity. Transit was measured by administering a non-absorbed marker (10% charcoal suspension in 5% gum arabic) as previously described.

mice [2] = test: Body (rectal) temperature measurement; type: in vivo; conditions: for Effect on hypothermic response to ACEA: pre-treatment 20 min before ACEA 1 mg·kg−1, Rimonabant 10 mg·kg−1, JM-00266 20 mg·kg−1, t = 30 min
Description: Mice rectal temperature was assessed using a VT4810 controller (Vertex Technology Corp., New Taipei City, Taiwan) adapted with a mouse rectal probe. In the first experiment, the impact of anandamide (10 mg·kg^−1) on body temperature was recorded during 30 min on animals injected either 20 min earlier with vehicle or JM-00266 (20 mg·kg^−1).

C57BL/6 wild type mice [3] = test: Insulin tolerance test (ITT); type: in vivo; conditions: 10 mg·kg−1 i.p. 10 min before insulin 0.5 UI·kg−1
Description: (§1) To test acute effects of JM-00266 on glucose metabolism and their specificity to CB1R, C57BL/6 wild type mice and CB1R^−/− mice fasted for 6 h were subjected to an oral glucose tolerance test (OGTT, 2 g·kg^−1 glucose) and to an insulin tolerance test (ITT) using 0.5 UI·kg^−1 insulin (Actrapid, Novo Nordisk, La Défense, France) 10 min after i.p. injection of JM-00266 (10 mg·kg^−1) or vehicle. For both tests, glycemia was monitored during 120 min post-injection with a My Life Pura TM glucose meter (Ypsomed, Paris, France) directly on a blood drop from the tail. Corresponding AUC0–2 h were calculated.

mice [4] = test: In vivo lipolysis: plasma glycerol appearance after BRL37344; conditions: JM-00266 i.p. 4 h before BRL37344 5 mg·kg−1 i.p.
Description: In vivo experiments. Overnight-fasted mice were injected i.p. with JM-00266 (mg·kg^−1) or vehicle. Four hours later, mice were injected i.p. with the specific ß3-adrenergic receptor agonist, BRL37344 (5 mg·kg^−1). Blood samples (~25 µL) were collected from tails in tubes containing EDTA (Sarstedt, Nümbrecht, Germany) at times 0, 15, 30, 45 and 60 min after BRL37344 injection to measure plasma glycerol appearance using a colorimetric assay (glycerol FS, DiaSys, Condom, France).

mice [5] = test: Food intake in 24-h food-deprived mice; type: in vivo; conditions: ACEA 1 mg/kg i.p.; for Cumulative 3-h food intake, co-administration with ACEA: Rimonabant 10 mg·kg−1, JM-00266 20 mg·kg−1
Description: For food intake experiments, mice were food-deprived for 24 h before being submitted to an i.p. injection of ACEA (1 mg·kg^−1). […] Cumulative food intake was measured every hour over a period of 3 h from refeeding.

mice [6] = test: Open field test (anxiety-related behavior); type: in vivo; conditions: 10 mg·kg−1 i.p. 30 min before, 10 min exploration
Description: Anxiety-related behavior was assessed using the open field test (OF; Mouse Open Field Arena ENV-510; Med Associates Inc., Fairfax, VT, USA). […] The two regions were defined by grid lines that divided each box into the center and periphery, with each of the four lines being 11 cm from each wall.

C57BL/6 wild type mice [7] = test: Oral glucose tolerance test (OGTT) in wild type mice; type: in vivo
Description: as §1

murine CB1R = biological target: T1, murine CB1R (Mus musculus, UniProt P47746); test: GloSensor cAMP functional assay in CB1R-transfected HEK293T/17 cells; type: cell-based
T1 construct: host or cells: HEK293T/17
Description: GloSensor™ cAMP assay designed by Promega (Charbonnières-les-Bains, France) was used to monitor activation of CB1R. HEK293T/17 cells obtained from the American Type Cell Culture Collection (LGC Promochem, Molsheim, France) were seeded at 30,000 cells per well on poly-D-lysine coated 96-well plates (BD Biosciences, Le Pont de Claix, France). They were grown in Dulbecco’s Modified Eagle Medium (DMEM, Waltham, MA, USA) containing 2 mM glutamax and 10% fetal bovine serum. Twenty-four hours later, cells were transiently co-transfected with 50 ng per well of pcDNA3-mouse CB1R (plasmid #13391 supplied by Addgene, Cambridge, MA, USA) which was a gift from Mary E. Abood (California Pacific Medical Center Research Institute, San Francisco, California) and pGlo™-22F cAMP plasmid-luciferase (100 ng per well) allowing these cells to produce light proportionally to intracellular CB1R-dependent cAMP level. Transfection was performed using the Fugene®HD transfection reagent (Promega) for 24 h according to the manufacturer’s instructions. Mock transfections were performed with the empty vector pcDNA3. Twenty-four hours after transfection, cells were equilibrated for 2 h with a CO2-independent medium (Gibco®, Life Technologies, Courtaboeuf, France) supplemented with the GloSensor™ cAMP reagent before adding tested compounds. When a steady-state basal signal was obtained, cells were incubated for 10 min with 1 µM forskolin (Sigma) at room temperature to enhance the intracellular basal cAMP level. Then increasing concentrations of JM-00266 (0.1 µM to 1 mM) were added in the reaction medium in the presence or absence of anandamide (0.1 µM to 1 µM) and luminescence was measured for 20 min with a Victor 3V plate reader (Perkin Elmer, Courtaboeuf, France). […] When GloSensor™ cAMP assays were carried out in the presence of 0.1 µg·mL^−1 pertussis toxin (Sigma), this compound was added in the incubation medium 24 h before incubation with forskolin. All assays were performed in duplicate and each experiment was repeated three times. Results were expressed as the percentage of forskolin-stimulated luciferase activity. The EC50 values were generated using the Sigma Plot software.

[8] = test system: visceral adipose tissue explants; test: In vitro lipolysis: glycerol release by adipose tissue explants from treated mice; conditions: explants from mice injected with JM-00266 10 mg·kg−1 4 h before sacrifice, 1 h culture
Description: In vitro experiments. Overnight-fasted mice were injected i.p. with JM-00266 (mg·kg^−1) or vehicle. Four hours later, mice were anesthetized with pentobarbital (50 mg·kg^−1) and epididymal adipose tissue was collected, rinsed in a warm medium (DMEM-HAM/F12) supplemented with 1% BSA, and dissected into ~10 mg pieces. Then, 5–6 explants were incubated in a 5% CO2 atmosphere at 37 °C under slight agitation in 1 mL of the same medium. Free glycerol in the culture medium was determined after 1 h of incubation using a colorimetric assay (glycerol FS, DiaSys).

CB1R−/− mice = test: Oral glucose tolerance test (OGTT) in CB1R−/− mice; type: in vivo; conditions: 10 mg·kg−1 i.p. 10 min before glucose gavage
Description: as §1

Brain/plasma ratio (B/P) = type: in vivo; conditions: mice; for Effect of the administration route on distribution in brain and plasma: 10 mg·kg−1, i.p. vs oral; for Kp: mouse, brain, intraperitoneal
Description: (§2) Tissues were homogenized with a mini-bead beater (BioSpec Products, Bartlesville, OK) in 10 volumes of acetonitrile containing 15 ng of internal standard, JM-00252. Blood samples were centrifuged at 6500× g during 10 min 4 °C and 5 µL of plasma were diluted in 10 volumes of acetonitrile containing 15 ng of internal standard. Then, each homogenate of tissue or plasma was centrifuged for 10 min at 6500× g and the supernatant was recovered and carefully transferred to new glass tubes. Finally, the extract was injected into a 1200 LC system coupled to a 6460-QqQ MS/MS system equipped with a JetStream ESI source (Agilent technologies, Les Ulis, France). Separation was achieved on a Poroshell 120 EC-C8 2.1 mm × 100 mm, 2.7 µm column (Agilent technologies) at a flow rate of 0.4 mL.min^−1, 55 °C, with a linear gradient of (solvent A) water containing 1 mM ammonium formate and 0.2% formic acid and (solvent B) methanol containing 1 mM ammonium formate and 0.2% formic acid and as follows: 50% B for 1 min, up to 100% B in 4 min, and then maintained at 100% for 2 min. The acquisition was performed in positive Single Reaction Monitoring (SRM) mode (source temperature: 300 °C, nebulizer gas flow rate was 10 L·min^−1, 15 psi, sheath gas flow 7 L·min^−1, temperature 225 °C, capillary 4000 V, nozzle 1500 V). […] Results are expressed as ng·g^−1 for tissues and ng·mL^−1 for plasma.
Brain/plasma ratios (B/P) were determined as previously described. […] Blood and brain were collected and directly extracted for further analysis by LC-MS/MS.

[9] = Plasma kinetic profile after i.p., oral or intravenous administration; type: in vivo, mice; conditions: for Maximal drug plasma concentration: n = 4
Description: (§3) At 1, 2, 4 and 8 h post-administration, animals were killed by cervical dislocation and blood was collected from the vena cava into tubes containing heparin and centrifuged immediately at 6500× g for 10 min at 4 °C. For determination of tissue distribution, brain, liver and adipose tissue were collected 4 h post-gavage. Plasma and tissue samples were directly extracted for further analysis by Liquid chromatography coupled to tandem mass spectrometry (LC-MS/MS).
as §2

[10] = Tissue distribution 4 h after gavage; type: in vivo; conditions: mice, 4 h after gavage in oil, 10 mg·kg−1
Description: as §3, §2

[11] = 10 mg·kg−1, i.p. or oral, DMSO/Tween 80 aqueous solution, at maximal absorption time point

T1 sequence (P47746 whole entry): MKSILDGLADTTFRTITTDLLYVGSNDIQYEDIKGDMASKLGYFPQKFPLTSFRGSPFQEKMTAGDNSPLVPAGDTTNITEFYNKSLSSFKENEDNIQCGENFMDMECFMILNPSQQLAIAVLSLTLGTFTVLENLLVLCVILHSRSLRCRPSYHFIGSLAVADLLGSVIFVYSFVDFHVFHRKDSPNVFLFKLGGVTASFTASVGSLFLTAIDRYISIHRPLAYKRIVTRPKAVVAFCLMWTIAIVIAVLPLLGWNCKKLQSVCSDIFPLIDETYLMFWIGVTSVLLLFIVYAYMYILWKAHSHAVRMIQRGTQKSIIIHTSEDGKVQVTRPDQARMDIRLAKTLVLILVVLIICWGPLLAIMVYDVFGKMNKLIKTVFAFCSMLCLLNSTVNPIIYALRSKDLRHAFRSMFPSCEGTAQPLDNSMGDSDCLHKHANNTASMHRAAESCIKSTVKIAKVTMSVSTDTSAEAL

CCCCC/C=C\C/C=C\C/C=C\C/C=C\CCCC(=O)NCCO [anandamide, Arachidonylethanolamide, reference compound]
Effect on gastro-intestinal transit, agonist alone (mice [1]; anandamide 10 mg·kg−1): slowing down of gastro-intestinal transit
Effect on rectal temperature, agonist alone (mice [2]; anandamide 10 mg·kg−1): decrease in rectal temperature

CSc1ccc(C2C(N3C(=O)c4ccccc4C3=O)C(=O)N2c2ccc(SC)cc2)cc1 (stereo not shown) [JM-00266, 1,4-di-(4-méthylthiophenyl)-3-phthaloylazetidin-2-one]
Glycemia during ITT (insulin sensitivity) (C57BL/6 wild type mice [3]): lower glycemia over time compared to vehicle treated mice
Effect on anandamide-induced slowing down of gastro-intestinal transit (mice [1]; JM-00266 10 mg·kg−1 10 min before anandamide 10 mg·kg−1): abrogated
ß-adrenergic-induced glycerol production (plasma glycerol) vs vehicle (mice [4]): increased
Cumulative 3-h food intake, co-administration with ACEA (mice [5]): not observed
Open field: locomotor activity (total ambulatory distance) (mice [6]): did not alter
Open field: number of center entries (mice [6]): did not alter
Open field: time spent in the center (mice [6]): did not alter
Plasma insulin levels during OGTT (C57BL/6 wild type mice [7]; 10 mg·kg−1 i.p.): lower than vehicle
Glucose tolerance (OGTT) vs vehicle (C57BL/6 wild type mice [7]; 10 mg·kg−1 i.p. 10 min before glucose gavage 2 g·kg−1): improved glucose tolerance
Effect on cAMP formation, compound alone (murine CB1R; HEK293T/17 cells transfected with murine CB1R, 0.1 µM to 1 mM): dose-dependent increase in cAMP formation
EC50 (murine CB1R; HEK293T/17 cells transfected with murine CB1R, forskolin 1 µM, GloSensor luminescence, read-out: EC50, increase in cAMP formation (inverse agonism)): 249 µM
cAMP response with increasing concentrations of anandamide (murine CB1R; anandamide 0.1 µM to 1 µM): lost
cAMP response in the presence of pertussis toxin (murine CB1R; pertussis toxin 0.1 µg·mL−1 added 24 h before): lost
Glycerol release by visceral adipose tissue explants vs control [8]: higher than in the control
Glucose tolerance (OGTT) vs vehicle (CB1R−/− mice): failed to improve glucose tolerance
Effect on anandamide-induced decrease in rectal temperature (mice [2]; JM-00266 20 mg·kg−1 20 min before anandamide 10 mg·kg−1, 30 min recording): not able to counteract the decrease in rectal temperature
Effect on hypothermic response to ACEA (mice [2]): had no effect
Brain/plasma ratio (B/P) (Brain/plasma ratio (B/P); [11]): significantly lower
Effect of the administration route on distribution in brain and plasma (Brain/plasma ratio (B/P)): not modified
Kp (Brain/plasma ratio (B/P); [11]): 0.3 to 0.5
Plasma clearance compared with Rimonabant ([9]; intravenous administration): slightly higher clearance
Time of peak drug plasma concentration ([9]; mice, i.p. 10 mg·kg−1, DMSO/Tween solution): 30 min
Maximal drug plasma concentration ([9]; mice, i.p. 10 mg·kg−1, mean ± SEM): 378 ± 27 ng/mL
Time of peak drug plasma concentration ([9]; mice, oral 10 mg·kg−1, dissolved in oil): 60 min
Maximal drug plasma concentration ([9]; mice, oral 10 mg·kg−1, mean ± SEM): 203 ± 18 ng/mL
Concentrations in plasma and tissues compared with Rimonabant [10]: lower concentrations in plasma and tissues than Rimonabant
Tissue distribution (plasma, brain, liver, visceral adipose tissue) [10]: preferentially accumulated in the liver and the adipose tissue whereas brain concentration remained very low

CCCCC/C=C\C/C=C\C/C=C\C/C=C\CCCC(=O)NCCCl.O [ACEA, Arachidonyl-2′-chloroethylamide hydrate]
Cumulative 3-h food intake, agonist alone (mice [5]): no effect on food intake
Effect on rectal temperature, agonist alone (mice [2]; ACEA 1 mg·kg−1, t = 30 min): hypothermic response

Cc1c(C(=O)NN2CCCCC2)nn(-c2ccc(Cl)cc2Cl)c1-c1ccc(Cl)cc1 [Rimonabant, reference compound]
Cumulative 3-h food intake, co-administration with ACEA (mice [5]): strong hypophagia
Open field: locomotor activity (total ambulatory distance) (mice [6]): did not significantly alter
Open field: number of center entries (mice [6]): did not significantly alter
Open field: time spent in the center (mice [6]): significantly decreased
Effect on hypothermic response to ACEA (mice [2]): fully inhibited the hypothermic response
Effect of the administration route on distribution in brain and plasma (Brain/plasma ratio (B/P)): strongly affected
Kp (Brain/plasma ratio (B/P); [11]): > 1
Bioavailability compared with JM-00266, whatever the administration route ([9]; mice, 10 mg·kg−1, i.p. or oral): far higher
Tissue distribution (plasma, brain, liver, visceral adipose tissue) [10]: preferentially accumulated in the liver and the adipose tissue whereas brain concentration remained very low
